“Also recorded” adds a separate entry of the source.
How the values were obtained:
[1] = tested on: calcineurin; details: cited from earlier work
[2] = tested on: purified chick sensory neurons (PC12 or SH-SY5Y cells); details: literature; cited from earlier work
[3] = tested on: DRG explants; assay: DRG explant neurite outgrowth with anti-NGF neutralizing antibodies or MEK1 inhibitor; assay type: cell-based, C57B1/6 mice
Description: (A) DRGs were prepared and cultured as above, except that either the MEK1 inhibitor, PD 098059, or NGF-neutralizing antibodies were included in cultures treated with either NGF or GM-284. Maximal response was determined to be the extent of neurite outgrowth when DRGs were cultured in NGF alone (spotted bars) or in 1 μM GM-284 (striped bars). As indicated, DRGs were treated with either NGF or GM-284, in the presence of either 0.25 mg/ml anti-NGF neutralizing antibodies or PD 098059. […] DRGs were treated with 100 ng/ml NGF or 1 μM GM-284, for 30 min or 4 h, as indicated, and the detergent lysates were prepared and immunoblotted with anti-phospho-Erk monoclonal antibody. The p42 and p44 bands are indicated by arrowheads.
Explanted DRG ganglia were dissected from P1 to P3 C57B1/6 mice, as previously described (Weinstein et al., Targeted expression of an oncogenic adaptor protein v-Crk potentiates axonal growth in dorsal root ganglia and motor neurons in vivo. Brain Res. Dev. Brain Res., 116:29-39, 1999). Briefly, DRGs were dissected and placed in ice-cold PBS containing 2% glucose, then transferred onto polyornithine/laminin-coated tissue culture plates (Biocoat, Becton Dickinson Laboratories) in DMEM-plating medium overnight. The plating medium consisted of Dulbecco's minimal essential plating medium (DMEM) supplemented with 10% fetal calf serum (FCS; Hyclone), 0.6% glucose, 2 mM glutamine, 100 U/ml penicillin, 100 μg/ml streptomycin, and 20 mM HEPES. […] For experiments employing anti-NGF neutralizing antibodies, cultures were incubated with […] anti-NGF antiserum, and replaced every two days. Cultures were kept at 37° C., in 5% CO2, for up to 1 week, at which time the extent of well-defined neurite outgrowth was assessed.
Signaling by the neurotrophins, while mediated by different cell-surface receptors, converges on the extensively studied and well-characterized MAP kinase pathway. […] Therefore, the inventors explored the possibility that GM-284 might signal through NGF directly, or through the MAP kinase cascade. […]

Compound: CCC(C)(C)C(=O)C(=O)N1CCC[C@H]1C(=O)OCCCc1cccnc1 [GPI-1046]
- binding to / inhibition of calcineurin [1]: neither bind to, nor inhibit, calcineurin
- neurite outgrowth without other signaling molecules / with sub-threshold NGF [2]: potentiate neurite outgrowth only when co-administered with sub-threshold concentrations of NGF; also recorded: unable to mediate neurite outgrowth in the absence of other signaling molecules

Compound: COc1cccc(-c2cc(=O)c3ccccc3o2)c1N [PD 098059]
- effect of anti-NGF / MEK1 inhibition on GM-284-mediated neurite outgrowth ([3]; DRGs cultured in 1 μM GM-284 plus inhibitor): no effect
- decrease of NGF-dependent neurite outgrowth ([3]; DRGs cultured in NGF plus inhibitor): ~40%

From US20040266811A1, “Methods for inducing regeneration, remyelination, and hypermyelination of nervous tissue” (priority 2002, published 2004)
